The record followed here is patent publication US11155517B2, “4-substituted phenylamine derivatives and their use to protect crops by fighting undesired phytopathogenic micoorganisms” (PI INDUSTRIES LTD., priority 2016, dated 2021).

The subject of test [1] is Pyricularia oryzae. Briefly: microbe, parasite or virus in culture. The test is classed as cell-based. As to conditions: 168 h, read-out: % control compared to the untreated check (radial growth).
Test [2] deals with Rhizoctonia solani. Description: Rhizoctonia solani (rice sheath blight/potato black scurf) in vitro test, radial growth on Potato Dextrose Agar. The test is classed as cell-based. As to conditions: 168 h, 300 ppm, seven days, 25° C., read-out: % control compared to the untreated check (radial growth).
The test system of test [3] is Botrytis cinerea. Briefly: Botrytis cinerea (gray mold) in vitro test, radial growth on Potato Dextrose Agar. Conditions: 168 h, 300 ppm, seven days, 22° C., read-out: % (control) compared to the untreated check (radial growth). The test is classed as cell-based.
For test [4], the system named is Alternaria solani. Description: Alternaria solani (early blight of tomato/potato) in vitro test, radial growth on Potato Dextrose Agar. The test is classed as cell-based. As to conditions: 168 h, 300 ppm, seven days, 25° C., read-out: % control compared to the untreated check (radial growth).
Test [5] relates to Colletotrichum capsici. Briefly: Colletotrichum capsici (anthracnose) in vitro test, radial growth on Potato Dextrose Agar. In kind it is cell-based. As to conditions: Colletotrichum truncatum, 168 h; 300 ppm; seven days, 25° C.; read-out: % control compared to the untreated check (radial growth).
Test [6] relates to Septoria lycopersici. Description: Septoria lycopersici (leaf spot of tomato) in vitro test, radial growth on Potato Dextrose Agar. The test is classed as cell-based. Conditions: 168 h, seven days, 25° C., read-out: % control compared to the untreated check (radial growth).
The test system of test [7] is Fusarium culmorum. Description: Fusarium culmorum (foot rot of cereals) in vitro test, radial growth on Potato Dextrose Agar. In kind it is cell-based. Conditions: Fusarium culmorum, 168 h, read-out: % control compared to the untreated check (radial growth).
For test [8], the system named is Fusarium culmorum. Briefly: Greenhouse Fusarium culmorum test in wheat, preventive. The test is classed as in vivo. Conditions: 24 h, read-out: Efficacy (% control), disease severity vs untreated check. The method, boiled down: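 Young greenhouse wheat sprayed preventively at stated rates (compounds in 2% DMSO/acetone, diluted in water), inoculated one day later with 2×10^6 Fusarium culmorum spores in 2% malt, held at 24 °C, 80-90% RH. Disease severity (0-100%) rated 3, 7, 10 and 15 days after application; % control versus untreated, phytotoxicity also recorded.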

Test [9] concerns Alternaria solani. Briefly: Greenhouse Alternaria solani test in tomato, preventive. The test is classed as in vivo. Conditions: 24 h, tomato plants sprayed one day before inoculation, read-out: Efficacy (% control), disease severity vs untreated check. The protocol: Compounds were dissolved in 2% DMSO/Acetone & then mixed with water to calibrated spray volume of 50 ml. This 50 ml spray solution was poured into the spray bottles for further applications. To test the preventive activity of compounds, healthy young Tomato plants raised in the greenhouse were sprayed with active compound preparation at the stated application rates inside the spray cabinets using hallowcone nozzles. One day after treatment, the plants were inoculated with spore suspension (2% Malt) containing 0.24×10^6 Alternaria solani inoculum. The inoculated plants were then kept in greenhouse chamber at 22-24° C. temperature and 90-95% relative humidity for disease expression. […] Efficacy (% control) of the compounds was calculated by comparing the disease rating in the treatment with untreated control. The sprayed plants were also assessed for compound's phytotoxic effects by recording symptoms like necrosis, chlorosis and stunting.

In test [10] the test system is Botrytis cinera. Description: Greenhouse Botrytis cinera test in tomato, preventive. The test is classed as in vivo. Conditions: 24 h, plants sprayed one day before inoculation, read-out: Efficacy (% control), disease severity vs untreated check.

In the case of `CNC=Nc1cc(C)c(Cc2cccc(F)c2)cc1Cl` [Compound 42, N′-(2-chloro-4-(3-fluorobenzyl)-5-methylphenyl)-N-methylformimidamide], the inhibition of growth at 300 ppm was above 75% in test [1]; above 80% in test [2]; above 80% in test [3]; above 75% in [4]; above 80% in [5]; above 70% in test [6]. Also, in test [7], the inhibition of growth at 300 ppm turned out to be 75%. For the same compound, the pest or weed control at 500 ppm in [8] and in test [9] was 70 to 100% throughout.
Consider `CNC=Nc1cc(C)c(Cc2cccc(Br)c2F)cc1C` [Compound 41, N′-(4-(3-bromo-2-fluorobenzyl)-2,5-dimethylphenyl)-N-methylformimidamide], for which the inhibition of growth at 300 ppm in test [1] was above 75%; in test [2], above 80%; in test [3], above 80%; in test [4] it was above 75%; in [5], above 80%; in test [6], above 70%. Further, the inhibition of growth at 300 ppm in [7] was 75%. Also, the pest or weed control at 500 ppm in test [8] and in test [9] was 70 to 100% in each case.
As for `CCN(C)C=Nc1cc(C)c(Cc2cccc(Br)c2F)cc1C` [Compound 27, N′-(4-(3-bromo-2-fluorobenzyl)-2,5-dimethylphenyl)-N-ethyl-N-methylformimidamide], the inhibition of growth at 300 ppm was above 75% in test [1]; above 80% in [2]; above 80% in test [3]; above 75% in [4]; above 80% in test [5]; above 70% in test [6]. In [7], the inhibition of growth at 300 ppm worked out at 75%. The pest or weed control at 500 ppm in test [10] and in [9] was 70 to 100% in each case.
`CCN(C)C=Nc1cc(C)c(Cc2cc(Cl)ccc2Cl)cc1C` [Compound 160, N′-(4-(2,5-dichlorobenzyl)-2,5-dimethylphenyl)-N-ethyl-N-methylformimidamide]: the inhibition of growth at 300 ppm was above 75% in test [1]; above 80% in test [2]; above 80% in [3]; above 75% in [4]; above 80% in test [5]; above 70% in test [6]. The inhibition of growth at 300 ppm in test [7] is 75%. For the same compound, the pest or weed control at 500 ppm in test [8] and in test [9] was 70 to 100% each time.
Take `CCN(C)C=Nc1cc(C)c(C(OC)c2ccccc2)cc1C` (centres unmarked) [Compound 2, N-ethyl-N′-(4-(methoxy(phenyl)methyl)-2,5-dimethylphenyl)-N-methylformimidamide]: the inhibition of growth at 300 ppm is above 75% in test [1], above 80% in [2] and above 75% in test [4]. Also, the pest or weed control at 500 ppm in [10] and in test [9] was 70 to 100% each time.
For `CCN(C)C=Nc1cc(C)c(Cc2cccc(F)c2)cc1C` [Compound 29, N-ethyl-N′-(4-(3-fluorobenzyl)-2,5-dimethylphenyl)-N-methylformimidamide], the inhibition of growth at 300 ppm in test [1] is above 75%; in test [2], above 80%; in test [3], above 80%; in test [4], above 75%; in [5], above 80%; in test [6], above 70%. Further, in test [7], the inhibition of growth at 300 ppm worked out at 75%. The pest or weed control at 500 ppm in test [10] and in [9] was 70 to 100% each time.
As for `Cc1cc(N=CN2CCOCC2)c(Cl)cc1Cc1ccccc1Cl` [Compound 40, N-(2-chloro-4-(2-chlorobenzyl)-5-methylphenyl)-1-morpholinomethanimine], the inhibition of growth at 300 ppm in [3] was above 80%. The pest or weed control at 500 ppm in test [10] and in test [9] was 70 to 100% each time.
For the compound `CCN(C)C=Nc1cc(C)c(/C(=N\C)c2ccccc2)cc1C` [Compound 31, N′-(2,5-dimethyl-4-((Z)-(methylimino)(phenyl)methyl)phenyl)-N-ethyl-N-methylformimidamide], the inhibition of growth at 300 ppm in test [1] was above 75%; in [2], above 80%; in test [4], above 75%; in test [6], above 70%; in test [7], 75%. For the same compound, the pest or weed control at 500 ppm in [10] and in test [9] was 70 to 100% in each case.
Consider `CCN(C)C=Nc1cc(C)c(Cc2ccccc2C)cc1C` [Compound 32, N′-(2,5-dimethyl-4-(2-methylbenzyl)phenyl)-N-ethyl-N-methylformimidamide], for which the inhibition of growth at 300 ppm was above 75% in [1]; above 80% in test [2]; above 80% in test [3]; above 75% in test [4]; above 80% in test [5]; above 70% in test [6]. The inhibition of growth at 300 ppm in test [7] was found to be 75%. Also, the pest or weed control at 500 ppm in test [8], in [10] and in test [9] was 70 to 100% each time.
Turning to `Cc1cc(N=CN2CCCCC2)c(C)cc1Cc1ccc(F)c(Cl)c1` [Compound 35, N-(4-(3-chloro-4-fluorobenzyl)-2,5-dimethylphenyl)-1-(piperidin-1-yl)methanimine], the inhibition of growth at 300 ppm in [1] was above 75%; in test [2], above 80%; in [3] it was above 80%; in [4], above 75%; in test [5], above 80%; in test [6] it was above 70%. Further, the pest or weed control at 500 ppm in test [8] and in test [9] was 70 to 100% each time.
In the case of `CCN(C)C=Nc1cc(C)c(Cc2ccccc2S(C)(=O)=O)cc1C` [Compound 25, N′-(2,5-dimethyl-4-(2-(methylsulfonyl)benzyl)phenyl)-N-ethyl-N-methylformimidamide], the inhibition of growth at 300 ppm in test [1] is above 75%; in [2], above 80%; in [4], above 75%; in [5], above 80%; in [6] it was above 70%. The pest or weed control at 500 ppm in [10] and in test [9] was 70 to 100% each time.
Turning to `CCN(C)C=Nc1cc(C)c(Cc2ccc(C)cc2)cc1C` [Compound 9, N′-(2,5-dimethyl-4-(4-methylbenzyl)phenyl)-N-ethyl-N-methylformimidamide], the inhibition of growth at 300 ppm in [1] was above 75%; in test [2], above 80%; in test [3], above 80%; in test [4], above 75%; in test [5], above 80%; in test [6], above 70%. Besides, the inhibition of growth at 300 ppm in test [7] is 75%. The pest or weed control at 500 ppm in test [10] and in test [9] was 70 to 100% in each case.
For `CCN(C)C=Nc1cc(C)c(Cc2ccc(Cl)cc2Cl)cc1Cl` [Compound 179, N′-(2-chloro-4-(2,4-dichlorobenzyl)-5-methylphenyl)-N-ethyl-N-methylformimidamide], the inhibition of growth at 300 ppm in [1] is above 75%; in test [2], above 80%; in [3] it was above 80%; in [4], above 75%; in [5] it was above 80%; in test [7], 75%. Also, the pest or weed control at 500 ppm in [10] and in test [9] was 70 to 100% throughout.
Turning to `CCN(C)C=Nc1cc(C)c(Cc2ccc(F)cc2F)cc1Cl` [Compound 180, N′-(2-chloro-4-(2,4-difluorobenzyl)-5-methylphenyl)-N-ethyl-N-methylformimidamide], the inhibition of growth at 300 ppm in test [1] is above 75%; in test [2], above 80%; in test [3], above 80%; in [4], above 75%; in test [5], above 80%; in test [7], 75%. Further, the pest or weed control at 500 ppm in [10] and in test [9] was 70 to 100% throughout.
